The source made the active and inactive calls. No rule for the calls is given here.
Test system: CCRIS mutagenicity, Ames/micronucleus/aberration tests
Assay: CCRIS mutagenicity studies

O=C1NC(=S)NC(=O)C1C(=O)Nc1ccccc1
mutagenic call (Test System: AMES SALMONELLA TYPHIMURIUM, Strain/Indicator: TA102, Metabolic Activation: NONE, Method: STANDARD PLATE): inactive; negative
mutagenic call (Test System: CHINESE HAMSTER V-79, Strain/Indicator: V-79 (HPRT)/6-THIOGUANINE, Metabolic Activation: NONE): inactive; negative
mutagenic call (Test System: MOUSE LYMPHOMA, Strain/Indicator: L5178Y (HPRT)/6-THIOGUANINE, Metabolic Activation: NONE, Method: FLUCTUATION TEST): active; positive
mutagenic call (Test System: MOUSE LYMPHOMA, Strain/Indicator: L5178Y (TK+/TK-), Metabolic Activation: NONE, Method: FLUCTUATION TEST): active; positive

CC(O)Cc1cc(N)cc([N+](=O)[O-])c1N (centres undefined)
mutagenic call (Test System: AMES SALMONELLA TYPHIMURIUM, Strain/Indicator: TA98, Metabolic Activation: NONE, Method: STANDARD PLATE): inactive; negative
mutagenic call (Test System: AMES SALMONELLA TYPHIMURIUM, Strain/Indicator: TA98, Metabolic Activation: RAT, LIVER, S-9, AROCLOR 1254, Method: STANDARD PLATE): inactive; negative
mutagenic call (Test System: AMES SALMONELLA TYPHIMURIUM, Strain/Indicator: TA100, Metabolic Activation: NONE, Method: STANDARD PLATE): inactive; negative
mutagenic call (Test System: AMES SALMONELLA TYPHIMURIUM, Strain/Indicator: TA100, Metabolic Activation: RAT, LIVER, S-9, AROCLOR 1254, Method: STANDARD PLATE): inactive; negative
mutagenic call (Test System: AMES SALMONELLA TYPHIMURIUM, Strain/Indicator: TA1535, Metabolic Activation: NONE, Method: STANDARD PLATE): inactive; negative
mutagenic call (Test System: AMES SALMONELLA TYPHIMURIUM, Strain/Indicator: TA1535, Metabolic Activation: RAT, LIVER, S-9, AROCLOR 1254, Method: STANDARD PLATE): inactive; negative
mutagenic call (Test System: AMES SALMONELLA TYPHIMURIUM, Strain/Indicator: TA1537, Metabolic Activation: NONE, Method: STANDARD PLATE): inactive; negative
mutagenic call (Test System: AMES SALMONELLA TYPHIMURIUM, Strain/Indicator: TA1537, Metabolic Activation: RAT, LIVER, S-9, AROCLOR 1254, Method: STANDARD PLATE): inactive; negative
mutagenic call (Test System: AMES SALMONELLA TYPHIMURIUM, Strain/Indicator: TA1538, Metabolic Activation: NONE, Method: STANDARD PLATE): inactive; negative
mutagenic call (Test System: AMES SALMONELLA TYPHIMURIUM, Strain/Indicator: TA1538, Metabolic Activation: RAT, LIVER, S-9, AROCLOR 1254, Method: STANDARD PLATE): inactive; negative
